Measurements as given in patent publication US7122683B2, “Amides useful as monoamine re-uptake inhibitors” (Pfizer Inc., priority 2004, dated 2006).
Where a name gives a salt, the structure may show the parent alone.

Assays:
[1] = target: T1, human noradrenaline transporter (hNET) (Homo sapiens, UniProt P23975); assay: SPA radioligand binding at human noradrenaline transporter (3H-nisoxetine); settings: hNET membranes from HEK-293 cells, Ki from IC50 by Cheng-Prusoff, geometric mean, read-out: NRI Ki
T1 construct: expressed in transfected cells; host or cells: HEK-293
T1 sequence (P23975 whole entry): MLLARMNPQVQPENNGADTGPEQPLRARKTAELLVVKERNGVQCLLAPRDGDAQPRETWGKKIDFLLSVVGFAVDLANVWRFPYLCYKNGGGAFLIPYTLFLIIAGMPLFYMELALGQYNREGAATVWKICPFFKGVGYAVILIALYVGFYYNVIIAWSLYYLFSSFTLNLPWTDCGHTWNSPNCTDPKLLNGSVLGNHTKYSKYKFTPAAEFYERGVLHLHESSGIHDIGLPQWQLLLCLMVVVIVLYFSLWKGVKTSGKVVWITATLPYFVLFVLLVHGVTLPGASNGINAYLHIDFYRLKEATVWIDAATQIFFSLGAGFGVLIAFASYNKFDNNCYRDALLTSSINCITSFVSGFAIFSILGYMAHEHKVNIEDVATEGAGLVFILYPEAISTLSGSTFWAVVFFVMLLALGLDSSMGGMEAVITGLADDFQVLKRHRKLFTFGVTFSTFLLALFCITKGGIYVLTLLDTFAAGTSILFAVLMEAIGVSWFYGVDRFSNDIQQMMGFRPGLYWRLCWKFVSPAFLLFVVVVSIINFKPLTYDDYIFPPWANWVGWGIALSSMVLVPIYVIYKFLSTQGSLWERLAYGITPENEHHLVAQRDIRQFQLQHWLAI
Experimental: (§1) The compounds were tested for biological activity by their ability to inhibit binding of selective radioligands at the human serotonin and noradrenaline transporters (SERT and NET, respectively), using scintillation proximity assay (SPA) technology. The SPA binding was performed using cellular membrane preparations prepared from cell lines expressing human cDNA encoding either SERT or NET (hSERT, hNET), using the radioligands ^3H-citalopram and ^3H-nisoxetine.
(§2) Human embryonic kidney cells (HEK-293) expressing each transporter were maintained as a continuous culture, using standard cell culture techniques, in 50 mL of growth medium (see Media and Buffers for composition) in 225 cm^2 flasks, at 37° C. in a humidified atmosphere with 5% CO2 present. Cells were passaged from a 90% confluent monolayer at a ratio of 1:3–1:4.
(§3) For cell harvesting, the growth medium was removed from the monolayer and the cells were incubated with cell dissociation solution (Sigma) until showing signs of dissociation. The cells were subsequently knocked from the base of the flask and pelleted by centrifugation for storage (frozen at −80° C.) prior to further use.
(§4) Cell pellets were thawed on ice and resuspended in 3 mL of membrane preparation buffer (see Media and Buffers for composition) per 1 mL of packed cell volume, using a vortex mixer to disperse the cell pellet. After incubation on ice for 10 minutes, the suspension was homogenised for four individual 10 second intervals using a hand-held homogeniser. The homogenate was then centrifuged at 1075×g for 20 minutes at 4° C.
(§5) The supernatants were then collected and retained. […]
(§6) The pooled supernatants were centrifuged at 35000×g for 30 minutes at 4° C., and the supernatants discarded. […] Protein concentrations were then measured and the membrane suspension was finally frozen in aliquots of set volume and stored at −80° C. prior to use in assays.
(§7) The specific SPA bead type differed for each transporter, wheat germ agglutinin-coated yttrium silicate (YSi WGA) SPA beads were used for hSERT and WGA-coated polyvinyltoluene (PVT WGA) SPA beads for hNET assays. For each batch of membrane used, optimal concentrations of bead and membrane were determined
(§8) Tritiated radioligands specific to each transporter (^3H-citalopram for hSERT and ^3H-nisoxetine for hNET) were used. The assay free radioligand concentration was expressed as a percentage of the total free radioligand concentration to give an estimate of the radioligand depletion. […]
(§9) The affinity of the specific radioligand for the respective transporter was determined for each membrane batch at the selected protein and bead concentrations. […]
(§10) The mean KD for a radioligand at a batch of membranes was determined from data from a minimum of three separate assays. […]

[2] = target: T2, human serotonin transporter (hSERT) (Homo sapiens, UniProt P31645); assay: SPA radioligand binding at human serotonin transporter (3H-citalopram); settings: hSERT membranes from HEK-293 cells, Ki from IC50 by Cheng-Prusoff, geometric mean, read-out: SRI Ki
T2 construct: expressed in transfected cells; host or cells: HEK-293
T2 sequence (P31645 whole entry): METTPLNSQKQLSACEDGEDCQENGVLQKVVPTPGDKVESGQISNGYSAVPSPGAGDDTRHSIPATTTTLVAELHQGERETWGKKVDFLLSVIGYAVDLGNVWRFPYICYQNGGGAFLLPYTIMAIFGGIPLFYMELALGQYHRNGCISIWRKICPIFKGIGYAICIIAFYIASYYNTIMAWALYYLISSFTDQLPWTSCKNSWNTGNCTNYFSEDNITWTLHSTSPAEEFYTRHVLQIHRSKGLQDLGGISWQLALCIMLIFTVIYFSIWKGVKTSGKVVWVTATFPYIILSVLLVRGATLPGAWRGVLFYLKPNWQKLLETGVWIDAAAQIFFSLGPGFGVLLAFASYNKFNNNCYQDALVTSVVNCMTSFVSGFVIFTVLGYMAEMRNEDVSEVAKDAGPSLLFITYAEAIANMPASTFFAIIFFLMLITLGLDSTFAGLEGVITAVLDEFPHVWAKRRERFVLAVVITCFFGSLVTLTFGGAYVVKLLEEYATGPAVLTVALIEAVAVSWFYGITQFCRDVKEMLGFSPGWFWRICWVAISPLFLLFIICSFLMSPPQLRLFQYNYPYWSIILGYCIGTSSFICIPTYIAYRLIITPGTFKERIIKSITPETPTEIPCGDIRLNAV
Experimental: as §1, §2, §3, §4, §5, §6, §7, §8, §9, §10

Row | Ki [1] [nM] | Ki [2] [nM] | Structure (SMILES)
1 | 9 | 11 | O=C(c1ccccc1Cl)N(C1CCCCC1)[C@H]1CCNC1 [Example 14, 2-chloro-N-cyclohexyl-N-[(3S)pyrrolidin-3-yl]benzamide]
2 | 11 | 9 | O=C(c1cccc(Cl)c1Cl)N(C1CCCCC1)[C@H]1CCNC1 [Example 6, 2,3-dichloro-N-cyclohexyl-N-[(3S)-pyrrolidin-3-yl]benzamide hydrochloride]
3 | 14 | 3 | Cc1c(Cl)cccc1C(=O)N(CC1(C)CC1)[C@H]1CCNC1 [Example 20, 3-chloro-2-methyl-N-[(1-methylcyclopropyl)methyl]-N-[(3S)pyrrolidin-3-yl]benzamide hydrochloride]
4 | 15 | 5 | O=C(c1cccc(Cl)c1Cl)N(C1CCCC1)[C@H]1CCNC1 [Example 1, 2,3-dichloro-N-cyclopentyl-N-[(3S)pyrrolidin-3-yl]benzamide hemi-edisylate]
